The numbers were not newly measured in paper PMC8043539 (Journal of Enzyme Inhibition and Medicinal Chemistry, 2021), which cites them from elsewhere.

For this data set, the target named is Sapp1p. To be noted: inhibition of Sapp1p from C. parapsilosis.
As to `COC(=O)[C@H](C)NC(=O)C[C@H](O)[C@H](Cc1ccccc1)NC(=O)[C@@H](NC(=O)[C@@H](NC(=O)OC(C)(C)C)C(C)C)C(C)C` [KB74, tert-butyl-oxycarbonyl-valine-valine-phenylstatine-alanine-OMe], the inhibition constant Ki was 14.6 nM.

In the case of `CC(C)[C@H](NC(=O)OC(C)(C)C)C(=O)N[C@H](C(=O)N[C@@H](Cc1ccccc1)[C@@H](O)CC(=O)N[C@@H](C)C(=O)N[C@@H](Cc1ccccc1)[C@@H](O)CC(N)=O)C(C)C` [KB70, tert-butyl-oxycarbonyl-valine-valine-phenylstatine-alanine-phenylstatine-NH2], the Ki was 0.1 nM. As for “isovaleric acid-valine-valine-statine-alanine-statine [Pepstatin A, reference compound]”, the inhibitory constant (Ki) was 0.3 nM.
